Calls of active or inactive are those of the source. The rule behind the calls is not given here.
Tests used:
[1] = target: T1, Kappa-type opioid receptor (Homo sapiens, UniProt P41145); assay: Agonist activity at recombinant human kappa-type opioid receptor expressed in HEK293 cells at 1 uM after 30 mins by [35S]GTPgammaS binding assay; assay type: functional, cell-based
Rattus norvegicus [2] = species: Rattus norvegicus; assay: Displacement of [3H]-DTG from sigma 2 receptor in rat liver membranes at 1 uM after 120 mins by scintillation counting; assay type: cell membranes; settings: Membrane
Mus musculus [3] = assay: (§1) Antiinflammatory activity in oxazolone-induced delayed type hypersensitivity BALB/c mouse model assessed as reduction in ear thickness at 0.5 mg applied topically on ear administered 3 hrs prior to oxazolone challenge on day 7 to 12 post sensitization followed by re-administration of compound on day 13 to 18 without oxazolone challenge measured on day 19; assay type: functional
Mus musculus [4] = assay: as §1, with “weight” for “thickness”, “0.1 to 2.5” for “0.5”; assay type: functional
Mus musculus [5] = assay: Antiinflammatory activity in oxazolone-induced delayed type hypersensitivity BALB/c mouse model assessed as effect on histology changes at 0.1 to 2.5 mg applied topically on ear administered 3 hrs prior to oxazolone challenge on day 7 to 12 post sensitization followed by re-administration of compound on day 13 to 18 without oxazolone challenge measured daily prior to treatment from day 7 to 19 by H and E staining based assay; assay type: functional
Mus musculus [6] = assay: Antiinflammatory activity in tropically administered oxazolone-induced delayed type hypersensitivity BALB/c mouse model assessed as effect on ear weight administered 3 hrs prior to oxazolone challenge on day 7 to 12 post sensitization followed by re-administration of compound on day 13 to 18 without oxazolone challenge measured on day 19; assay type: functional
[7] = target: Sigma non-opioid intracellular receptor 1 (Cavia porcellus) (UniProt Q60492); assay: Displacement of [3H]-(+)-pentazocine from sigma1-type […] receptor in guinea pig cortex membranes at 1 uM after 120 mins by solid scintillation counting; assay type: cell membranes
Chain of Sigma non-opioid intracellular receptor 1 (Cavia porcellus) (Q60492 whole entry): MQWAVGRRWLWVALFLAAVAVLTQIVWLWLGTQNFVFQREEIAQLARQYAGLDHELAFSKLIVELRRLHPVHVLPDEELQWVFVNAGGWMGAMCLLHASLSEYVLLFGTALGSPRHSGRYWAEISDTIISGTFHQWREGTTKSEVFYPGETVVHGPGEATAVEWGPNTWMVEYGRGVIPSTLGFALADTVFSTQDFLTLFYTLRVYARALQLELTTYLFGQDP

Sus scrofa = species: Sus scrofa; assay: Displacement of [3H]-(+)-MK 801 from PCP binding site of NMDA receptor in pig brain cortex membranes at 10 uM after 120 mins by solid scintillation counting; assay type: cell membranes
[8] = Plasma concentration in Wistar Han rat at 1 mg/kg, iv measured 0.25 hrs post compound administration; assay type: ADME, organism-based
[9] = Plasma concentration in Wistar Han rat at 1 mg/kg, iv measured 1 hr post compound administration; assay type: ADME, organism-based
Rattus norvegicus [10] = assay: Toxicity in Wistar Han rat assessed as clinical signs changes at 1 mg/kg, iv after 1 hr; assay type: organism-based; settings: in vivo
[11] = Ratio of drug level in brain to plasma in Wistar Han rat at 1 mg/kg, iv after 1 hr; assay type: ADME, organism-based; settings: read-out: BPR
[12] = Drug level in Wistar Han rat brain at 1 mg/kg, iv measured 1 hr post compound administration; assay type: ADME, organism-based; settings: Wistar Han, brain, read-out: Drug uptake
[13] = target: T1, Kappa-type opioid receptor; assay: Agonist activity at recombinant human kappa-type opioid receptor expressed in HEK293 cells after 30 mins by [35S]GTPgammaS binding assay; assay type: functional, cell-based
Mus musculus [14] = assay: Antinociceptive activity in sc dosed mouse model of acetic acid-induced writhing; assay type: functional
[15] = target: Kappa-type opioid receptor (Cavia porcellus, UniProt P41144); assay: Displacement of [3H]U-69,593 from kappa-type opioid receptor in guinea pig brain membranes after 120 mins by solid scintillation counting; assay type: cell membranes, Membrane
Chain of Kappa-type opioid receptor (Cavia porcellus, UniProt P41144) (P41144 whole entry): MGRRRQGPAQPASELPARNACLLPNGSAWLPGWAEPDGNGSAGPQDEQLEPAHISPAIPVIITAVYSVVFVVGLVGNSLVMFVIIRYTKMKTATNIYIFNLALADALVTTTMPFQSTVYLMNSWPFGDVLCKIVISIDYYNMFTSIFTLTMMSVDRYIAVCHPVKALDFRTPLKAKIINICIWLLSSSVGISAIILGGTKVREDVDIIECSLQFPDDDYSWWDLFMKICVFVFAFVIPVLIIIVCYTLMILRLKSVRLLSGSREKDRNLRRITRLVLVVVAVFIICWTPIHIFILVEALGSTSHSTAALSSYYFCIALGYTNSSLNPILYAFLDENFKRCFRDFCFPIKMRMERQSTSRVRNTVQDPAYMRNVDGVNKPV

Mus musculus [16] = assay: Antiinflammatory activity in arachidonic acid-induced ear dermatitis ICR mouse model assessed as reduction in ear swelling at 0.1 mg administered twice tropically 30 mins prior and 15 mins after arachidonic acid addition measured 60 mins post arachidonic acid challenge relative to control; assay type: functional
Mus musculus [17] = assay: CNS toxicity in sc dosed mouse model of acetic acid-induced writhing assessed as lowest dose causing side effects; assay type: organism-based; settings: in vivo
Mus musculus [18] = assay: Antiinflammatory activity in arachidonic acid-induced ear dermatitis ICR mouse model assessed as reduction in ear swelling at 0.3 mg administered twice tropically 30 mins prior and 15 mins after arachidonic acid addition measured 60 mins post arachidonic acid challenge relative to control; assay type: functional
Mus musculus [19] = assay: Antiinflammatory activity in arachidonic acid-induced ear dermatitis ICR mouse model assessed as reduction in ear swelling at 1 mg administered twice tropically 30 mins prior and 15 mins after arachidonic acid addition measured 60 mins post arachidonic acid challenge relative to control; assay type: functional
Mus musculus [20] = assay: Antiinflammatory activity in arachidonic acid-induced ear dermatitis ICR mouse model assessed as reduction in ear swelling at 3 mg administered twice tropically 30 mins prior and 15 mins after arachidonic acid addition measured 60 mins post arachidonic acid challenge relative to control; assay type: functional
Mu-type opioid receptor = Mu-type opioid receptor (Cavia porcellus, UniProt P97266); assay: Displacement of [3H]DAMGO from mu-type opioid receptor in guinea pig brain membranes after 120 mins by solid scintillation counting; assay type: cell membranes, Membrane
Chain of Mu-type opioid receptor (P97266 whole entry): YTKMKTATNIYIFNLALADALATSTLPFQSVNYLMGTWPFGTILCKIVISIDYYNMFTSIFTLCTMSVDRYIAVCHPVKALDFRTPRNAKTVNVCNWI

[21] = Displacement of [3H]DPDPE from delta-type opioid receptor in guinea pig brain membranes after 120 mins by solid scintillation counting; assay type: cell membranes, Cavia porcellus, Membrane
[22] = Stability of the compound in buffer; assay type: physicochemical
[23] = target: Mu-type opioid receptor (Cavia porcellus) (UniProt P97266); assay: Displacement of [3H]DAMGO from mu-type opioid receptor in guinea pig brain membranes at 1 uM after 120 mins by solid scintillation counting; assay type: cell membranes; settings: Membrane
Chain of Mu-type opioid receptor (Cavia porcellus) (P97266 whole entry): as above

Cavia porcellus [24] = species: Cavia porcellus; assay: Displacement of [3H]DPDPE from delta-type opioid receptor in guinea pig brain membranes at 1 uM after 120 mins by solid scintillation counting; assay type: cell membranes; settings: Membrane
[25] = Lipophilicity, logD of the compound at pH 7.4 by LC/MS analysis; assay type: physicochemical; settings: buffer
Cavia porcellus [26] = species: Cavia porcellus; assay: Selectivity ratio of Ki for delta-type opioid receptor in guinea pig brain membranes to Ki for kappa-type opioid receptor in guinea pig brain membranes; assay type: cell membranes
Mus musculus [27] = assay: Antiinflammatory activity in oxazolone-induced delayed type hypersensitivity BALB/c mouse model assessed as reduction in ear swelling at 2.5 mg applied topically on ear administered 3 hrs prior to oxazolone challenge on day 7 to 12 post sensitization followed by re-administration of compound on day 13 to 18 without oxazolone challenge measured daily prior to treatment from day 7 to 19; assay type: functional
Mus musculus [28] = assay: as §1, with “weight” for “thickness”, “2.5” for “0.5”; assay type: functional

T1 sequence (P41145 whole entry): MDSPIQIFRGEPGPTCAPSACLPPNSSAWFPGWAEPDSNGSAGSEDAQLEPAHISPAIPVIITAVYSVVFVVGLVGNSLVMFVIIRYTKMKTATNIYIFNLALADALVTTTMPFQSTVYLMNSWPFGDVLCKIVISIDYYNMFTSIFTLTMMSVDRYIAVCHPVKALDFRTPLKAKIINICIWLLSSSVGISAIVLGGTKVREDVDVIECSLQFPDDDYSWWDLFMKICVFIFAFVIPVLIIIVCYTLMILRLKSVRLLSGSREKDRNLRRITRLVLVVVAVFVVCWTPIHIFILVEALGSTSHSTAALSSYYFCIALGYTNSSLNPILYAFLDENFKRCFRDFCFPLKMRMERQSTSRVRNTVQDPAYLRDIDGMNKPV

Row | Compound | Activity [1] | inhibition (Rattus norvegicus [2]) | Activity (Mus musculus [3]) | inhibition [7] | inhibition (Sus scrofa) | concentration at 0.25 h [8] | concentration at 1 h [9] | Activity (Rattus norvegicus [10]) | Kp at 1 h [11] | concentration at 1 h [12] | EC50 [13] | Ki [15] | inhibition [23] | also measured
1 | COC(=O)N1CCN(C(=O)Cc2ccc(Cl)c(F)c2)[C@@H]2[C@@H](N3CC[C@H](O)C3)CCC[C@@H]21 | 93% | 0% | Active | 0% | 11% | – | – | – | – | – | – | – | – | Activity (Mus musculus [4]): Dose-dependent effect; Activity (Mus musculus [5]): Active; Activity (Mus musculus [6]): Dose-dependent effect
2 | COC(=O)CN1CCN(C(=O)Cc2ccc(Cl)c(Cl)c2)[C@@H]2[C@@H](N3CCCC3)CCC[C@@H]21.Cl | – | – | – | – | – | 477 ng/mL | 199 ng/mL | Non-Toxic | 0.02 | 4.6 ng/g | – | – | – | –
3 | CC(C)NC(=O)N1CCN(C(=O)Cc2ccc(Cl)c(Cl)c2)[C@@H]2[C@@H](N3CCCC3)CCC[C@@H]21.Cl | – | – | – | – | – | 290 ng/mL | 130 ng/mL | Non-Toxic | 0.02 | 2.9 ng/g | – | – | – | –
4 | COC(=O)N1CCN(C(=O)Cc2ccc(Cl)c(Cl)c2)[C@@H]2[C@@H](N3CC[C@H](O)C3)CCC[C@@H]21 | – | – | – | – | – | – | – | – | – | – | 0.9 nM | 0.45 nM | – | ED50 (Mus musculus [14]): 2.2 mg/kg; inhibition (INH) (Mus musculus [16]): 23%; MTC (Mus musculus [17]): 5.4 mg/kg; inhibition (INH) (Mus musculus [18]): 25%; inhibition (INH) (Mus musculus [19]): 41%; inhibition (INH) (Mus musculus [20]): 66%; Ki (Mu-type opioid receptor): 184 nM; Ki [21]: 101 nM
5 | CS(=O)(=O)N1CCN(C(=O)Cc2ccc(Cl)c(Cl)c2)[C@@H]2[C@@H](N3CCCC3)CCC[C@@H]21.Cl | – | – | – | – | – | 246 ng/mL | 124 ng/mL | Non-Toxic | 0.02 | 2.9 ng/g | – | – | – | –
6 | CC(C)OC(=O)CN1CCN(C(=O)Cc2ccc(Cl)c(Cl)c2)[C@@H]2[C@@H](N3CCCC3)CCC[C@@H]21 | 94% | 26% | – | 0% | 1% | – | – | – | – | – | 5 nM | 1.4 nM | 7% | Stability [22]: Unstable; inhibition (Cavia porcellus [24]): 0%
7 | COC(=O)CN1CCN(C(=O)Cc2ccc(Cl)c(Cl)c2)[C@@H]2[C@@H](N3CCCC3)CCC[C@@H]21 | – | – | – | – | – | – | – | – | – | – | 1.7 nM | 0.7 nM | – | Stability [22]: Unstable; logD [25]: 1.64; Ki (Mu-type opioid receptor): 1230 nM; Ki [21]: 1230 nM
8 | COC(=O)N1CCN(C(=O)Cc2ccc(Cl)c(Cl)c2)[C@@H]2[C@@H](N(C)C)CCC[C@@H]21 | 96% | 0% | – | 4% | 0% | – | – | – | – | – | – | – | 0% | Ratio Ki (Cavia porcellus [26]): > 50
9 | COC(=O)N1CCN(C(=O)Cc2cccc(Cl)c2)[C@@H]2[C@@H](N3CC[C@H](O)C3)CCC[C@@H]21 | 102% | 0% | Active | 0% | 4% | – | – | – | – | – | – | – | – | –
10 | CS(=O)(=O)N1CCN(C(=O)Cc2ccc(F)c(Cl)c2)[C@@H]2[C@@H](N3CC[C@H](O)C3)CCC[C@@H]21 | 99% | 3% | Active | 3% | 6% | – | – | – | – | – | – | – | 0% | Activity (Mus musculus [27]): Active; Activity (Mus musculus [28]): Active

— ChEMBL document CHEMBL4007424, “Design and Synthesis of Enantiomerically Pure Decahydroquinoxalines as Potent and Selective κ-Opioid Receptor Agonists with Anti-Inflammatory Activity in Vivo” (J Med Chem, 2017)
